System: scopolamininduzierten Amnesie
Test: Passive avoidance test, scopolamine-induced amnesia (light-dark box, foot shock, latency after 24 h)
Format: in vivo, Mäuse
Settings: male mice, scopolamine hydrobromide 3 mg/kg i.p.
Description: Die Testapparatur ist eine Hell-Dunkel-Box mit elektrifizierbarem Gitterboden im dunklen Teil.
55 Minuten nach Verabreichung von Kontroll-und Präparatinjektion werden unerfahrene männliche Mäuse mit Scopolaminhydrobromid (3 mg/kg i.p.) behendelt. 5 Minuten später werden die Mäuse in den hellen Teil der Box gesetzt. Nach dem Überwechseln in den drunklen Teil der Box erhalten sie einen ihnen unangenehmen elektrischen Fußschock. Nach 24 Stunden wird jede Maus einmal in den hellen Teil der Testapparatur gesetzt und die Verweildauer (max. 180 sec.) gemessen. […] […] Die Ergebnisse sind in Tabelle 2 angegeben.

## 1-(Aminocarbony(methyl)-2,5-dimethylpyrrol-3-aldehyd [Beispiel 13]
Dosis 30 mg/kg p.o., latency measured after 24 h (max. 180 sec)
  Prozentuale Abschwächung der scopolamininduzierten Amnesie: 146%

## NC(=O)CN1CCCC1=O [Piracetam]
Dosis 60 mg/kg p.o.
  prozentuale Abschwächung: 100%
